For 17 compounds, IC50 and ILS results are on record in ChEMBL document CHEMBL1122305, “Adriamycin analogues. Preparation and biological evaluation of some novel 14-thiaadriamycins” (1983).

Broadly, the ILS is the gain in survival time of treated over control animals, in per cent. High values mean much gain in survival, low ones little gain in survival.

Test [1] relates to CCRF-CEM. The test is described as follows: In vitro growth inhibition against CCRF-CEM (human lymphoblastic leukemic) cell line. Type of test: functional. Conditions: read-out: ID50 (the source's name).
In test [2] the test system is L1210. The test is described as follows: Percent increase in life span relative to untreated controls in murine L1210 leukemia infected B6D2F1J male mice at 50 mg/kg optimal dose. In kind it is functional. The note with it: Mus musculus.
For test [3], the system named is L1210. Nature of the test: Percent increase in life span relative to untreated controls in murine L1210 leukemia infected B6D2F1J male mice at 60 mg/kg optimal dose. In kind it is functional. The note with it: Mus musculus.
Test [4] concerns L1210. The test is described as follows: Percent increase in life span relative to untreated controls in murine L1210 leukemia infected B6D2F1J male mice at 10.13 mg/kg optimal dose. The note with it: Mus musculus. In kind it is functional.
Test [5] relates to L1210. Nature of the test: Percent increase in life span relative to untreated controls in murine L1210 leukemia infected B6D2F1J male mice at 101.25 mg/kg optimal dose. The note with it: Mus musculus. In kind it is functional.
Test [6] relates to L1210. Nature of the test: Percent increase in life span relative to untreated controls in murine L1210 leukemia infected B6D2F1J male mice at 30 mg/kg optimal dose. Type of test: functional. Conditions: Mus musculus.
Test [7] concerns L1210. The test is described as follows: Percent increase in life span relative to untreated controls in murine L1210 leukemia infected B6D2F1J male mice at […] optimal dose. In kind it is functional, Mus musculus.
Test [8] has as its system L1210. The test is described as follows: Percent increase in life span relative to untreated controls in murine L1210 leukemia infected B6D2F1J male mice at 4 mg/kg optimal dose. Type of test: functional. Conditions: Mus musculus.

For `CCCCC(=O)OCC(=O)[C@]1(O)Cc2c(O)c3c(c(O)c2[C@@H](OC2CC(NC(=O)C(F)(F)F)C(O)C(C)O2)C1)C(=O)c1c(OC)cccc1C3=O` (stereo not given in full), the IC50 in test [1] amounted to 0.24 µM. Further, in test [2], the ILS at 50 mg/kg was more than 455%.

For `COc1cccc2c1C(=O)c1c(O)c3c(c(O)c1C2=O)C[C@@](O)(C(=O)CSCCSCC(=O)[C@]1(O)Cc2c(O)c4c(c(O)c2[C@H](OC2CC(N)C(O)C(C)O2)C1)C(=O)c1c(OC)cccc1C4=O)C[C@@H]3OC1CC(N)C(O)C(C)O1` (stereo not given in full), the IC50 in test [1] was determined as 1.06 µM.

With `COc1cccc2c1C(=O)c1c(O)c3c(c(O)c1C2=O)C[C@@](O)(C(=O)CSCCCSCC(=O)[C@]1(O)Cc2c(O)c4c(c(O)c2[C@@H](OC2CC(N)C(O)C(C)O2)C1)C(=O)c1c(OC)cccc1C4=O)C[C@@H]3OC1CC(N)C(O)C(C)O1` (stereo not given in full), in test [1], the IC50 came to 0.83 µM.

With `COc1cccc2c1C(=O)c1c(O)c3c(c(O)c1C2=O)C[C@@](O)(C(=O)C[Se]c1ccccc1)C[C@@H]3OC1CC(NC(=O)C(F)(F)F)C(O)C(C)O1` (stereo not given in full), the ILS at 60 mg/kg in test [3] stood at 66%. For the same compound, in test [1], the IC50 was found to be 2.8 µM.

`CCCCSCC(=O)[C@]1(O)Cc2c(O)c3c(c(O)c2[C@@H](OC2CC(N)C(O)C(C)O2)C1)C(=O)c1c(OC)cccc1C3=O` (stereo not given in full): the increase in life span (ILS) at 10.13 mg/kg in test [4] was found to be 33%. Besides, the IC50 in test [1] was found to be 0.25 µM.

For `COc1cccc2c1C(=O)c1c(O)c3c(c(O)c1C2=O)C[C@@](O)(C(=O)CSc1ccccc1)C[C@@H]3OC1CC(NC(=O)C(F)(F)F)C(O)C(C)O1` (stereo not given in full), in test [1], the IC50 is more than 13.7 µM. The increase in life span (ILS) at 101.25 mg/kg in test [5] was determined as 10%.

`CCCCCCCCCCCCSCC(=O)[C@]1(O)Cc2c(O)c3c(c(O)c2[C@@H](OC2CC(N)C(O)C(C)O2)C1)C(=O)c1c(OC)cccc1C3=O` (stereo not given in full): the ILS at 10.13 mg/kg in test [4] came to 11%. Also, the IC50 in test [1] is 1.44 µM.

On to `CCCCCSCC(=O)[C@]1(O)Cc2c(O)c3c(c(O)c2[C@@H](OC2CC(N)C(O)C(C)O2)C1)C(=O)c1c(OC)cccc1C3=O` (stereo not given in full), for which the increase in lifespan (ILS) at 10.13 mg/kg in test [4] was 33%. The IC50 in test [1] was found to be 0.95 µM.

In the case of `CCOC(=O)CSCC(=O)[C@]1(O)Cc2c(O)c3c(c(O)c2[C@@H](OC2CC(N)C(O)C(C)O2)C1)C(=O)c1c(OC)cccc1C3=O` (stereo not given in full), the IC50 in test [1] is 0.23 µM. Moreover, the increase in life span (ILS) at 30 mg/kg in test [6] is 50%.

`CCOC(=O)CSCC(=O)[C@]1(O)Cc2c(O)c3c(c(O)c2[C@@H](OC2CC(NC(=O)C(F)(F)F)C(O)C(C)O2)C1)C(=O)c1c(OC)cccc1C3=O` (stereo not given in full) had an ILS in test [7] of 0%. The IC50 in test [1] is 5.33 µM.

`COc1cccc2c1C(=O)c1c(O)c3c(c(O)c1C2=O)C[C@@](O)(C(=O)CSc1ccccc1)C[C@@H]3OC1CC(N)C(O)C(C)O1` (stereo not given in full) returned an ILS at 10.13 mg/kg in test [4] of 22%. For the same compound, in test [1], the IC50 was determined as 0.87 µM.

In the case of `COc1cccc2c1C(=O)c1c(O)c3c(c(O)c1C2=O)C[C@@](O)(C(=O)C[Se]c1ccccc1)C[C@@H]3OC1CC(N)C(O)C(C)O1` (stereo not given in full), the IC50 in test [1] was 0.4 µM.

For `CCCCCSCC(=O)[C@]1(O)Cc2c(O)c3c(c(O)c2[C@@H](OC2CC(NC(=O)C(F)(F)F)C(O)C(C)O2)C1)C(=O)c1c(OC)cccc1C3=O` (stereo not given in full), in test [7], the increase in lifespan (ILS) was determined as 10%. For the same compound, in test [1], the IC50 is more than 13.8 µM.

Take `COc1cccc2c1C(=O)c1c(O)c3c(c(O)c1C2=O)C[C@@](O)(C(=O)CSCCCCCCCCCSCC(=O)[C@]1(O)Cc2c(O)c4c(c(O)c2[C@H](OC2CC(N)C(O)C(C)O2)C1)C(=O)c1c(OC)cccc1C4=O)C[C@@H]3OC1CC(N)C(O)C(C)O1` (stereo not given in full): the IC50 in test [1] came out at 1.23 µM.

`CCCCSCC(=O)[C@]1(O)Cc2c(O)c3c(c(O)c2[C@@H](OC2CC(NC(=O)C(F)(F)F)C(O)C(C)O2)C1)C(=O)c1c(OC)cccc1C3=O` (stereo not given in full) had an increase in lifespan (ILS) in test [7] of 0%. Also, in test [1], the IC50 was 5.62 µM.

`CCCCCCCCCCCCSCC(=O)[C@]1(O)Cc2c(O)c3c(c(O)c2[C@@H](OC2CC(NC(=O)C(F)(F)F)C(O)C(C)O2)C1)C(=O)c1c(OC)cccc1C3=O` (stereo not given in full) displayed an increase in lifespan (ILS) in test [7] of 0%. The IC50 in test [1] was more than 15 µM.

`COc1cccc2c1C(=O)c1c(O)c3c(c(O)c1C2=O)C[C@@](O)(C(=O)CO)C[C@@H]3O[C@H]1C[C@H](N)[C@H](O)[C@H](C)O1` [DOXORUBICIN] had an increase in lifespan (ILS) at 4 mg/kg in test [8] of 50%. Also, the IC50 in test [1] amounted to 0.066 µM.
